For test [1], the system named is HAP1 MTAP-deleted cell line. Put plainly: Viability assay, MTAP-deleted cell line. The settings on record: Homo sapiens, HAP1, viability IC50, MTAP-deleted cell line; read-out: HAP1 MTAP deleted viability. The test is classed as cell-based. An excerpt:
Table 1 additionally indicates IC50 values in a viability assay for the MTAP-deleted cell line (column 10), indicating the effect of treatment with compound on cell survival.

For test [2], the target named is T1, PRMT5 (Homo sapiens, UniProt O14744).
T1 construct: purchased Viva (custom protein)
Put plainly: PRMT5 biochemical IC50 assay with MTA as cofactor. The note with it: PRMT5, MTA as cofactor; read-out: MTA IC50.

Test [3] concerns HAP1 MTAP-intact cell line. The test is described as follows: SDMA in-cell western assay, HAP1 MTAP-intact. The class given is cell-based. The settings on record: Homo sapiens, HAP1, SDMA in-cell western, HAP1 MTAP-intact; read-out: MTAP HAP1 intact IC50. In a few lines: (§1)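 Isogenic HAP1 pair: the MTAP-intact line expresses endogenous MTAP, and the deleted line is MTAP-null. Symmetric dimethylarginine was detected by in-cell western and IC50 values derived for each line.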

In test [4] the test system is HAP1 MTAP-deleted cell line. The test is described as follows: SDMA in-cell western assay, HAP1 MTAP-deleted. The test is classed as cell-based. The settings on record: for pIC50: Homo sapiens, HAP1, SDMA in-cell western, HAP1 MTAP-deleted, read-out: HAP 1 MTAP deleted IC50; for MTAP intact/deleted ratio: IC50 ratio HAP1 MTAP-intact / HAP1 MTAP-deleted, SDMA in-cell western. In a few lines: as §1

For test [5], the target named is T1, PRMT5. The test is described as follows: PRMT5 biochemical IC50 assay with no cofactor. The settings on record: PRMT5, no cofactor; read-out: No Cofactor/rel IC50. The source says:
Table 1 indicates IC50 values (μM) against PRMT5 for exemplary compounds in the presence of SAM as cofactor, with no cofactor, and with MTA as cofactor, respectively (columns 4-6). […] Ki values can be calculated from the IC50 values as described in the Examples section. As detailed in the Examples section, for the assay performed in the presence of SAM, IC50=Ki×1.5 (Ki=IC50/1.5).

Test [6] has as its target T1, PRMT5. Put plainly: PRMT5 biochemical IC50 assay with SAM as cofactor. The note with it: PRMT5, SAM as cofactor; read-out: SAM IC50.

pIC50: −log10 of the molar value.

T1 sequence (O14744 whole entry): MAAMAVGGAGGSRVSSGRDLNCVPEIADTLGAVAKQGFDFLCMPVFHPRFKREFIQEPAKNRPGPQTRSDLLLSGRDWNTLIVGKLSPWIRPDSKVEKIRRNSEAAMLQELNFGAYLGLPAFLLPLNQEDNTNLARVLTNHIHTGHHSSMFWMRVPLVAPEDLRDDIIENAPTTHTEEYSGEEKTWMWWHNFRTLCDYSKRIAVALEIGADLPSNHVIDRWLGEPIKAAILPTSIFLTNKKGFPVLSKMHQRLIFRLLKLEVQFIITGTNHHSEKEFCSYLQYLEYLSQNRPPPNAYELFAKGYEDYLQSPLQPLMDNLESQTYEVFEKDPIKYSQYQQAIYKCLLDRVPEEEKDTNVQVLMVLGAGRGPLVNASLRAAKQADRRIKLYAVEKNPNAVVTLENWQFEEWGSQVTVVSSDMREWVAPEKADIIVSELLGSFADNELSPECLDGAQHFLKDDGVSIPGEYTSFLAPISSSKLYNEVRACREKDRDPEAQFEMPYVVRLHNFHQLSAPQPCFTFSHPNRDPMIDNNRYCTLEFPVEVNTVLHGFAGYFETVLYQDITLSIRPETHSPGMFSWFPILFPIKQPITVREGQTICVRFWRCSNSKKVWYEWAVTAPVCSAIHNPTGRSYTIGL
T1 sequence (Q9BQA1 whole entry partner): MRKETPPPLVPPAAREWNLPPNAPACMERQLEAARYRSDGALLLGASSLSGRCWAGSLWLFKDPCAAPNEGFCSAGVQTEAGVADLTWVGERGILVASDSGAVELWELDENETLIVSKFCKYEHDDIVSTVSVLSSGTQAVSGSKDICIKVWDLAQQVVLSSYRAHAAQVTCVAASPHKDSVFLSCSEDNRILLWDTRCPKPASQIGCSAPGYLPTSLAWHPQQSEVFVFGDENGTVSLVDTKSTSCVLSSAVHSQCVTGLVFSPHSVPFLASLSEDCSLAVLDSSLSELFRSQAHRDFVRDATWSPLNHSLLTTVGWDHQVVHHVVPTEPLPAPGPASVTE

On to `Cc1cc(NC(=O)C(=O)N2CC[C@@H](C)C[C@H]2c2ccccc2)cnc1N` (racemic) [Compound 640, N-(6-amino-5-methyl-3-pyridyl)-2-[(2R,4S)-4-methyl-2-phenyl-1-piperidyl]-2-oxo-acetamide], for which the pIC50 in test [1] is 5.00 to 6.00; at PRMT5 [2], 6.30 to 7.30; in test [3], below 6.00; in test [4] it was 6.00 to 7.00; at PRMT5 [5], 6.30 to 7.30; at PRMT5 [6], 6.30 to 7.30. Further, the MTAP intact/deleted ratio result in test [4] is “A (an IC50 ratio greater than or equal to 10 fold)”.

With `Cc1cc(NC(=O)C(=O)N2C[C@H](C)CC[C@H]2c2ccc3c(c2)CCC(=O)N3)cnc1C(F)F` (racemic) [Compound 641, N-[6-(Difluoromethyl)-5-methyl-3-pyridyl]-2-[(2S,5R)-5-methyl-2-(2-oxo-3,4-dihydro-1H-quinolin-6-yl)-1-piperidyl]-2-oxo-acetamide], the pIC50 in test [1] was 5.00 to 6.00; at PRMT5 [2] it was 6.30 to 7.30; in test [3], below 6.00; in test [4], 6.00 to 7.00; at PRMT5 [5], 6.30 to 7.30; at PRMT5 [6] it was 6.30 to 7.30.

`CCc1cc([C@@H]2CC[C@@H](C)CN2C(=O)C(=O)Nc2cncc(C(N)=O)c2)ccc1O` (racemic) [Compound 642, 5-[[2-[(2R,5S)-2-(3-Ethyl-4-hydroxy-phenyl)-5-methyl-1-piperidyl]-2-oxo-acetyl]amino]pyridine-3-carboxamide]: the pIC50 in test [1] is above 6.00; at PRMT5 [2], 6.30 to 7.30; in test [3] it was below 6.00; in test [4] it was above 7.00; at PRMT5 [5], 6.30 to 7.30; on PRMT5 [6] it was 6.30 to 7.30. In test [4], the MTAP intact/deleted ratio result is “A (an IC50 ratio greater than or equal to 10 fold)”.

As to `Cc1cc(NC(=O)C(=O)N2C[C@H](C)CC[C@H]2c2ccc(S(C)(=O)=O)cc2)cnc1N` (racemic) [Compound 643, N-(6-amino-5-methyl-3-pyridyl)-2-[(2R,5S)-5-methyl-2-(4-methylsulfonylphenyl)-1-piperidyl]-2-oxo-acetamide], the pIC50 in test [1] is 5.00 to 6.00; at PRMT5 [2], 6.30 to 7.30; in test [3], below 6.00; in test [4], 6.00 to 7.00; at PRMT5 [5] it was 6.30 to 7.30; on PRMT5 [6], 6.30 to 7.30. For the same compound, the MTAP intact/deleted ratio result in test [4] was “C (an IC50 ratio of less than 3 fold)”.

For the compound `Cc1cc(NC(=O)C(=O)N2C[C@H](C)CC[C@H]2c2ccc(C(N)=O)s2)cnc1N` (racemic) [Compound 644, 5-[(2S,5R)-1-[2-[(6-amino-5-methyl-3-pyridyl)amino]-2-oxo-acetyl]-5-methyl-2-piperidyl]thiophene-2-carboxamide], the pIC50 in test [1] is above 6.00; at PRMT5 [2] it was 6.30 to 7.30; in test [3], 6.00 to 7.00; in test [4] it was above 7.00; at PRMT5 [5], 6.30 to 7.30; at PRMT5 [6] it was 6.30 to 7.30. Further, the MTAP intact/deleted ratio entry in test [4] was “A (an IC50 ratio greater than or equal to 10 fold)”.

Regarding `Cc1cc(NC(=O)C(=O)N2C[C@H](C)CC[C@H]2c2cccc(S(C)(=O)=O)c2)cnc1C` (racemic) [Compound 648, N-(5,6-dimethyl-3-pyridyl)-2-[(2R,5S)-5-methyl-2-(3-methylsulfonylphenyl)-1-piperidyl]-2-oxo-acetamide], the pIC50 in test [1] is below 5.00; on PRMT5 [2], 6.30 to 7.30; in test [3] it was below 6.00; in test [4] it was below 6.00; at PRMT5 [5], 6.30 to 7.30; on PRMT5 [6], 6.30 to 7.30. For the same compound, in test [4], the MTAP intact/deleted ratio entry is reported as “B (an IC50 ratio greater than or equal to 3 fold but lower than 10 fold)”.

In the case of `Cc1cc(NC(=O)C(=O)N2C[C@H](C)CC[C@H]2c2ccc(S(C)(=O)=O)cc2)cnc1C` (racemic) [Compound 649, N-(5,6-dimethyl-3-pyridyl)-2-[(2R,5S)-5-methyl-2-(4-methylsulfonylphenyl)-1-piperidyl]-2-oxo-acetamide], the pIC50 is below 5.00 in test [1]; 6.30 to 7.30 on PRMT5 [2]; below 6.00 in test [3]; below 6.00 in test [4]; 6.30 to 7.30 on PRMT5 [5]; below 6.30 at PRMT5 [6]. Further, the MTAP intact/deleted ratio entry in test [4] is “B (an IC50 ratio greater than or equal to 3 fold but lower than 10 fold)”.

For `C[C@@H]1CC[C@@H](c2ccc(S(N)(=O)=O)cc2)N(C(=O)C(=O)Nc2cncc(C(N)=O)c2)C1` (racemic) [Compound 651, rac 5-[[2-[(2S,5R)-5-methyl-2-(4-sulfamoylphenyl)-1-piperidyl]-2-oxo-acetyl]amino]pyridine-3-carboxamide], the pIC50 in test [1] is below 5.00; at PRMT5 [2], 6.30 to 7.30; in test [3] it was below 6.00; in test [4], below 6.00; on PRMT5 [5], 6.30 to 7.30; at PRMT5 [6] it was 6.30 to 7.30. Moreover, in test [4], the MTAP intact/deleted ratio entry is “C (an IC50 ratio of less than 3 fold)”.

Consider `CNS(=O)(=O)c1ccc([C@@H]2CC[C@@H](C)CN2C(=O)C(=O)Nc2cncc(C(N)=O)c2)cc1` (racemic) [Compound 652, rac 5-[[2-[(2S,5R)-5-methyl-2-[4-(methylsulfamoyl)phenyl]-1-piperidyl]-2-oxo-acetyl]amino]pyridine-3-carboxamide], for which the pIC50 was below 5.00 in test [1]; 6.30 to 7.30 at PRMT5 [2]; below 6.00 in test [3]; below 6.00 in test [4]; 6.30 to 7.30 on PRMT5 [5]; 6.30 to 7.30 at PRMT5 [6]. Further, the MTAP intact/deleted ratio entry in test [4] is listed as “C (an IC50 ratio of less than 3 fold)”.

As for `Cc1cc(NC(=O)C(=O)N2C[C@H](C)CC[C@H]2c2ccc(N)cn2)cnc1N` (racemic) [Compound 658, N-(6-amino-5-methyl-3-pyridyl)-2-[2-(5-amino-2-pyridyl)-5-methyl-1-piperidyl]-2-oxo-acetamide], the pIC50 was below 5.00 in test [1]; 6.30 to 7.30 on PRMT5 [2]; below 6.00 in test [3]; 6.00 to 7.00 in test [4]; 6.30 to 7.30 on PRMT5 [5]; 6.30 to 7.30 on PRMT5 [6]. The MTAP intact/deleted ratio result in test [4] is “A (an IC50 ratio greater than or equal to 10 fold)”.

For `C[C@@H]1CC[C@@H](c2cccc(S(N)(=O)=O)c2)N(C(=O)C(=O)Nc2cncc(C(N)=O)c2)C1` (racemic) [Compound 661, 5-(2-(5-methyl-2-(3-sulfamoylphenyl)piperidin-1-yl)-2-oxoacetamido)nicotinamide], the pIC50 in test [1] was below 5.00; on PRMT5 [2], above 7.30; in test [3], below 6.00; in test [4], below 6.00; at PRMT5 [5], 6.30 to 7.30; at PRMT5 [6] it was 6.30 to 7.30. Besides, the MTAP intact/deleted ratio result in test [4] was “B (an IC50 ratio greater than or equal to 3 fold but lower than 10 fold)”.

Regarding `Cc1cc(NC(=O)C(=O)N2C[C@H](C)CC[C@H]2c2ccc(S(N)(=O)=O)cc2)cnc1N` (racemic) [Compound 662, N-(6-amino-5-methyl-3-pyridyl)-2-[(2S,5R)-5-methyl-2-(4-sulfamoylphenyl)-1-piperidyl]-2-oxo-acetamide], the pIC50 in test [1] was below 5.00; on PRMT5 [2], 6.30 to 7.30; in test [3], below 6.00; in test [4] it was 6.00 to 7.00; at PRMT5 [5], 6.30 to 7.30; at PRMT5 [6] it was 6.30 to 7.30. Also, the MTAP intact/deleted ratio entry in test [4] is “A (an IC50 ratio greater than or equal to 10 fold)”.

Take `C[C@@H]1CC[C@@H](c2ccccc2C#N)N(C(=O)C(=O)Nc2cncc(C(N)=O)c2)C1` (racemic) [Compound 664, 5-[[2-[(2R,5S)-2-(2-Cyanophenyl)-5-methyl-1-piperidyl]-2-oxo-acetyl]amino]pyridine-3-carboxamide]: the pIC50 in test [1] was below 5.00; on PRMT5 [2] it was 6.30 to 7.30; in test [3], below 6.00; in test [4] it was below 6.00; on PRMT5 [5], below 6.30; on PRMT5 [6] it was below 6.30. Also, the MTAP intact/deleted ratio result in test [4] is “B (an IC50 ratio greater than or equal to 3 fold but lower than 10 fold)”.

For `CNS(=O)(=O)c1cccc([C@@H]2CC[C@@H](C)CN2C(=O)C(=O)Nc2cncc(C(N)=O)c2)c1` (racemic) [Compound 666, 5-[[2-[(2S,5R)-5-methyl-2-[3-(methylsulfamoyl)phenyl]-1-piperidyl]-2-oxo-acetyl]amino]pyridine-3-carboxamide], the pIC50 in test [1] was below 5.00; at PRMT5 [2] it was above 7.30; in test [3], below 6.00; in test [4], below 6.00; on PRMT5 [5], 6.30 to 7.30; at PRMT5 [6], 6.30 to 7.30.

The values above are taken from patent US11999727B2 (Tango Therapeutics, Inc., priority 2020, dated 2024).
